We go through three molecules from patent US11884686B2, “Chelate compounds” (priority 2016, dated 2024).

Data set [1] is described as follows: Dissociation kinetics via Cu2+ transmetallation (UV-Vis absorbance). In kind it is physicochemical. As to conditions: for overall kinetic inertness: Cu2+ and Zn2+ transmetallation, all experimental conditions; for nature of the kinetic dissociation curve, Cu2+ exchange: UV-Vis absorbance at 300 nm, all pH and Cu2+ concentrations assessed; for kobs1 / kobs2: 25° C., 0.2 mM chelate; for conversion of Mn chelate during transmetallation: competing Cu2+, FIGS. 9 and 10. How it is done:
Kinetic inertness was evaluated at slightly acidic pH due to the slow rate of dissociation of the paramagnetic complex at physiological pH and to the potential hydrolysis of the metal ions at the concentrations used for the experiments and at pH values close to physiological.
The dissociation kinetics of the prior art Mn Chelate, Mn Chelate 4 and Mn Chelate 3 at a concentration of 0.2 mM was assessed via Cu^2+ transmetallation recording the time-dependent change of the UV-Vis absorbance in the presence of an excess of competing metal ion (10 and 40 equivalents of Cu^2+); at 25° C. and different pH (pH: 5.0; 5.2; 5.4). For all assessments, the reaction mixture contained 0.15 M NaCl; 50 mM NMP. The ? for the acquisition of the UV-Vis spectra was selected based on the difference between the observed absorbance for the Mn(II) based chelates (e.g., prior art Mn Chelate, Mn Chelate 3 and Mn Chelate 4) and the newly formed Cu^2+-complex in order to have the best differentiation between the two chemical species. The UV-Vis spectra were acquired at ? =300 nm on a Perkin-Elmer Lambda 19 spectrophotometer. Indeed, the displacement of Mn(II) ion induced by Cu^2+ led to an increase of the observed absorbance at ? =300 nm for all Mn(II) based chelates in all experimental conditions. This increase is due the formation of the Cu^2+-complex.
For any of the transmetallation experiments carried out with the prior art Mn Chelate (e.g., at different pH; different Zn^2+ or Cu^2+ concentration) it was evident that the variation of the relaxation rate T1 (for the Zn^2+-exchange; FIG. 4) or the variation of the UV-Vis absorbance (for the Cu^2+-exchange; FIG. 5) caused by competing metal ion was a “single phase” process better described as a mono-exponential function. […] The rate of dissociation described by kobs was calculated via equation (1) where [MnL]tot is the total concentration of Mn(II) based chelates and t is the observation time.
These biphasic kinetic curves could be mathematically well fitted with the biexponential equation (2) where A is the observed absorbance; b, A1 and A2 are constants specific for the biphasic dissociation process for a Mn(II) based chelate; kobs1 and kobs2 are the rate constants describing the biphasic dissociation and t is the observation time. A=b−A1e^−k^obs1^t−A2e^−k^obs2t (Equation 2)
The rates of the biphasic dissociation for Mn Chelate 3 and Mn Chelate 4 described by kobs1 and kobs2 and of the monophasic dissociation for the prior art Mn Chelate described by kobs were calculated via equation (2) and (1) respectively for the different experimental conditions utilized in the set of experiments.
From the qualitative comparison of the kinetic curves and preliminary kobs it was evident that Mn Chelate 3 and Mn Chelate 4 dissociate with a different mechanism described by a biexponential function and at a slower rate compared to the prior art Mn Chelate. To quantitatively compare the kinetic inertness of these Mn(II) based chelates, the direct comparison of the evolution of the UV-Vis absorbance at 300 nm was recorded for the Cu^2+ exchange reaction. Direct comparison of the UV-Vis absorbance allowed quantification of the conversion of the Mn(II) based chelates into Cu^2+ based chelates during the transmetallation reaction which can be correlated to the kinetic inertness of the Mn(II) complex. The “conversion” was calculated following equation (3), where At is the absorbance at a time t (or end of the reaction), A0 is the absorbance at time zero (or beginning of the acquisition) and Aeq is the absorbance at the equilibrium.

Another data set in a line: 1H NMRD profiles. It counts as physicochemical. As to conditions: 0.01 to 80 MHz, pH 6.9. The method, then:
Both the longitudinal and transverse relaxation times were measured in human serum (BioreclamationIVT, Cat #HMSRM-M) to reflect the efficiency of the Mn(II) based chelates in an environment close to physiological. The relaxivity assessment was carried out at a concentration ranging from 5 to 0 mM Mn(II), at 40° C. using a Minispec Mq benchtop NMR relaxometer (Bruker Instruments, Rheinstetten, Germany) operating at 60 MHz (1.4 T) with an inversion recovery pulse sequence. The longitudinal and transverse relaxivities of the complexes (e.g., r1 and r2 respectively) were calculated by plotting the reciprocal of their relaxation time versus the manganese concentration as determined via ICP-MS (Spectro Arcos FHS12, S/N 10003910 or S/N 12006120) for each Mn(II) based chelates. The dependence of T1 by B0 (i.e., magnetic field) applied was assessed via the acquisition of ^1H Nuclear Magnetic Relaxation Dispersion (NMRD) profiles. […] The temperature was monitored by a VTC91 temperature control unit and maintained by a gas flow. The temperature was determined by previous calibration with a Pt resistance temperature probe. High field relaxivities were measured on a Bruker AVANCE NMR spectrometer at 400 MHz. […]

“Also recorded” adds a separate entry of the source.

Consider `CN(C[C@H](O)[C@@H](O)[C@H](O)[C@H](O)CO)C(=O)CCCN1CCN2Cc3cccc(n3)CN(CC1)C(CCC(=O)N(C)C[C@H](O)[C@@H](O)[C@H](O)[C@H](O)CO)C(=O)[O][Mn][O]C(=O)C2CCC(=O)N(C)C[C@H](O)[C@@H](O)[C@H](O)[C@H](O)CO` (stereo partly drawn) [Mn Chelate 3], for which, in data set [1], the overall kinetic inertness result is given as “evident improvement in overall kinetic inertness” and the “nature of the kinetic dissociation curve, Cu2+ exchange” value (from here on “nature … Cu2+ exchange”) is reported as “biphasic nature”. In data set [1] (pH = 5.0, CCu2+ 0.002 M), this molecule had a kobs1 of 0.483 min⁻¹ and a kobs2 of 0.0023 min⁻¹. In addition, in data set [1] (pH = 5.0, CCu2+ 0.008 M), the kobs1 was 0.378 min⁻¹ and the kobs2 is 0.0024 min⁻¹. In data set [1] (pH = 5.2, CCu2+ 0.002 M), this molecule gave a kobs1 of 0.303 min⁻¹ and a kobs2 of 0.0015 min⁻¹.

As to `CN1CCN2Cc3cccc(n3)CN(CC1)C(CCC(=O)N(C)C[C@H](O)[C@@H](O)[C@H](O)[C@H](O)CO)C(=O)[O][Mn][O]C(=O)C2CCC(=O)N(C)C[C@H](O)[C@@H](O)[C@H](O)[C@H](O)CO` (stereo partly drawn) [Mn Chelate 4], in data set [1], the overall kinetic inertness entry is given as “evident improvement in overall kinetic inertness; also recorded: most kinetically inert compound examined”; the “nature … Cu2+ exchange” value was “biphasic nature”; the “conversion of Mn chelate during transmetallation” value is “dissociates even slower”. In addition, in data set [1] (pH = 5.0, CCu2+ 0.002 M), the kobs1 came to 0.340 min⁻¹ and the kobs2 was 0.0013 min⁻¹. In data set [1] (pH = 5.0, CCu2+ 0.008 M), this molecule returned a kobs1 of 0.190 min⁻¹ and a kobs2 of 0.0009 min⁻¹. For the same molecule, in data set [1] (pH = 5.2, CCu2+ 0.002 M), the kobs1 was determined as 0.240 min⁻¹ and the kobs2 worked out at 0.0009 min⁻¹. Further, in data set [1] (pH = 5.4, CCu2+ 0.002 M), the kobs1 came out at 0.201 min⁻¹ and the kobs2 worked out at 0.001 min⁻¹. Moreover, in “1H NMRD profiles”, the “1H NMRD profile” value is “only one dispersion in the profile around 1 MHz; also recorded: small r1 hump in the frequency region between 60 and 80 MHz”.

Take `CN1CCN2CC(=O)[O][Mn][O]C(=O)CN(CC1)Cc1cccc(n1)C2` [Prior Art Mn Chelate, reference compound]: the “nature … Cu2+ exchange” value in data set [1] is on record as “single phase”. In addition, the “conversion of Mn chelate during transmetallation” value in data set [1] is given as “reaches a full conversion at much shorter time point than Mn Chelate 3”. For the same molecule, the kobs1 was found to be 0.034 min⁻¹ in data set [1] (pH = 5.0, CCu2+ 0.002 M); 0.035 min⁻¹ in data set [1] (pH = 5.0, CCu2+ 0.008 M); 0.022 min⁻¹ in data set [1] (pH = 5.2, CCu2+ 0.002 M); 0.017 min⁻¹ in data set [1] (pH = 5.4, CCu2+ 0.002 M). Moreover, the “1H NMRD profile” value in “1H NMRD profiles” is on record as “only one dispersion in the profile around 1 MHz”.
